Data taken from ChEMBL document CHEMBL4400519, “Indazolylketones as new multitarget cannabinoid drugs” (Eur J Med Chem, 2019).
Active and inactive are the calls of the source. The calls are words filed in the database; no cut-off is given here.

Tests used:
[1] = biological target: T1, Cannabinoid receptor (Mus musculus) (UniProt P47746+P47936); assay: Agonist activity at cannabinoid receptor in ICR mouse vas deferens assessed as inhibition of electrically induced contractions at 1.82 x 10^-5 M after 10 mins relative to control; type: protein assay
T1 sequence (P47746 whole entry, looked up): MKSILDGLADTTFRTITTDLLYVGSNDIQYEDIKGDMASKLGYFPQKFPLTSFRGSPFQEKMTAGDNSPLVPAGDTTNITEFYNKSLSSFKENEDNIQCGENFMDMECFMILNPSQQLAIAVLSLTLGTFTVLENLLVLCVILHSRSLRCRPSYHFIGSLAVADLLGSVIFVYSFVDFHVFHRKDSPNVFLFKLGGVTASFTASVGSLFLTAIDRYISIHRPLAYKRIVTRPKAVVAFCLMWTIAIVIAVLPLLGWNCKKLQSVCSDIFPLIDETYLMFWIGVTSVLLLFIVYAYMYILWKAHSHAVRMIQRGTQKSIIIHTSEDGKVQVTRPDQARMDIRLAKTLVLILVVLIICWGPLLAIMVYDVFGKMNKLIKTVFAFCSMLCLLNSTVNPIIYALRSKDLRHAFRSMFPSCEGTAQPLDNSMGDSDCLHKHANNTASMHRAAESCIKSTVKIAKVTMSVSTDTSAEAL
T1 sequence (P47936 whole entry, looked up): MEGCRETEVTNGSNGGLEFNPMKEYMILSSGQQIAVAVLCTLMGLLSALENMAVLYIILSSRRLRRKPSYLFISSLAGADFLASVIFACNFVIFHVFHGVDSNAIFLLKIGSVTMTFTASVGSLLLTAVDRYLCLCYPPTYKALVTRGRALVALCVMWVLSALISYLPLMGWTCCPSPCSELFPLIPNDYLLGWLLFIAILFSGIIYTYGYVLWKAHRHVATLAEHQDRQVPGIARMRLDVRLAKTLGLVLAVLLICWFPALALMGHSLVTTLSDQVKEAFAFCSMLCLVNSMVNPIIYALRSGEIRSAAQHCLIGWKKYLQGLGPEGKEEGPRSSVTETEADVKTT

[2] = biological target: T1, Cannabinoid receptor (Mus musculus); assay: Agonist activity at cannabinoid receptor in ICR mouse vas deferens assessed as inhibition of electrically induced contractions at 9 x 10^-7 M after 10 mins relative to control; type: protein assay
[3] = biological target: T1, Cannabinoid receptor (Mus musculus); assay: Agonist activity at cannabinoid receptor in ICR mouse vas deferens assessed as inhibition of electrically induced contractions at 10^-7 M after 10 mins relative to control; type: protein assay
[4] = biological target: T1, Cannabinoid receptor (Mus musculus); assay: Agonist activity at cannabinoid receptor in ICR mouse vas deferens assessed as inhibition of electrically induced contractions at 2.7 x 10^-6 M after 10 mins relative to control; type: protein assay
Cholinesterase [5] = biological target: T2, Cholinesterase (Homo sapiens, UniProt P06276); assay: Competitive inhibition of human serum BChE using butyrylthiocholine as substrate by Lineweaver-Burk plot analysis
T2 sequence (P06276 whole entry): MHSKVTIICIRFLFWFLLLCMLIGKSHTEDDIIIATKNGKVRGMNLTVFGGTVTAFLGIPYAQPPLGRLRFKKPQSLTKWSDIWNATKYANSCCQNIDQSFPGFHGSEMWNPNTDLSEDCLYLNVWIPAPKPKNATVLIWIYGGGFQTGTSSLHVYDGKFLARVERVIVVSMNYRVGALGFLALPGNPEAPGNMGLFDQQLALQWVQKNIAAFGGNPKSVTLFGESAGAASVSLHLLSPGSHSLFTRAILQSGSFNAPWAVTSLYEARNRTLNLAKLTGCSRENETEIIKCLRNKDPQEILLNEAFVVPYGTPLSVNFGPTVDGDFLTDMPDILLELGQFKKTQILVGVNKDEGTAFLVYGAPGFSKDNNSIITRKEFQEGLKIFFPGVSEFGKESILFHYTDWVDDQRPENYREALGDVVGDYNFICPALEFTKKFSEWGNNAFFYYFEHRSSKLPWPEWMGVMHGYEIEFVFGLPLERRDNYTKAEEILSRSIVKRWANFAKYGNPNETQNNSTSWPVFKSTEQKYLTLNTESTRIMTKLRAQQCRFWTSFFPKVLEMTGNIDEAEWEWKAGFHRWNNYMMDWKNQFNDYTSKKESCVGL

[6] = biological target: T1, Cannabinoid receptor (Mus musculus); assay: Agonist activity at cannabinoid receptor in ICR mouse vas deferens assessed as inhibition of electrically induced contractions at 3 x 10^-7 M after 10 mins relative to control; type: protein assay
[7] = biological target: T1, Cannabinoid receptor (Mus musculus); assay: Agonist activity at cannabinoid receptor in ICR mouse vas deferens assessed as inhibition of electrically induced contractions at 8.1 x 10^-6 M after 10 mins relative to control; type: protein assay
[8] = biological target: Beta-secretase 1 (Homo sapiens) (UniProt P56817); assay: Inhibition of human BACE1 at 10 uM incubated for 60 mins using rhodamine-EVNLDAEFK-quencher substrate by FRET assay
Chain of Beta-secretase 1 (Homo sapiens) (P56817 whole entry): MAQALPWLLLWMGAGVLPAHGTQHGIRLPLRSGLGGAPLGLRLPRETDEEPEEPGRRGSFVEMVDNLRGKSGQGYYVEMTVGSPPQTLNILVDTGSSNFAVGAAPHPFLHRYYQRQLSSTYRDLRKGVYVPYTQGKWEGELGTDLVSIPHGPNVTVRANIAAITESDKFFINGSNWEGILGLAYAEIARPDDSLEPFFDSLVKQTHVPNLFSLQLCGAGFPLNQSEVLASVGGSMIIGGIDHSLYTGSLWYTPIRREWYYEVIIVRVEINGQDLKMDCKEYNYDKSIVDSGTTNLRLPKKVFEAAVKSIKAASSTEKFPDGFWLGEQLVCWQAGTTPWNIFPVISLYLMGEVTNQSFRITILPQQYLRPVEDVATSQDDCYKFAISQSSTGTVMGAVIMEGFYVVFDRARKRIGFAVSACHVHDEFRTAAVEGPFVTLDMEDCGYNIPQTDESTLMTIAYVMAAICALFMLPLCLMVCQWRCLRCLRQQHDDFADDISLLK

[9] = Antioxidant activity assessed as trolox equivalent of APPH-induced radical scavenging activity by ORAC-FL assay; type: functional
Cholinesterase [10] = biological target: T2, Cholinesterase; assay: Inhibition of human serum BChE using butyrylthiocholine as substrate by Ellman's assay
Acetylcholinesterase [11] = biological target: T3, Acetylcholinesterase (Homo sapiens, UniProt P22303); assay: Inhibition of human erythrocyte AChE at 10 uM using acetylthiocholine as substrate by Ellman's assay
T3 sequence (P22303 whole entry): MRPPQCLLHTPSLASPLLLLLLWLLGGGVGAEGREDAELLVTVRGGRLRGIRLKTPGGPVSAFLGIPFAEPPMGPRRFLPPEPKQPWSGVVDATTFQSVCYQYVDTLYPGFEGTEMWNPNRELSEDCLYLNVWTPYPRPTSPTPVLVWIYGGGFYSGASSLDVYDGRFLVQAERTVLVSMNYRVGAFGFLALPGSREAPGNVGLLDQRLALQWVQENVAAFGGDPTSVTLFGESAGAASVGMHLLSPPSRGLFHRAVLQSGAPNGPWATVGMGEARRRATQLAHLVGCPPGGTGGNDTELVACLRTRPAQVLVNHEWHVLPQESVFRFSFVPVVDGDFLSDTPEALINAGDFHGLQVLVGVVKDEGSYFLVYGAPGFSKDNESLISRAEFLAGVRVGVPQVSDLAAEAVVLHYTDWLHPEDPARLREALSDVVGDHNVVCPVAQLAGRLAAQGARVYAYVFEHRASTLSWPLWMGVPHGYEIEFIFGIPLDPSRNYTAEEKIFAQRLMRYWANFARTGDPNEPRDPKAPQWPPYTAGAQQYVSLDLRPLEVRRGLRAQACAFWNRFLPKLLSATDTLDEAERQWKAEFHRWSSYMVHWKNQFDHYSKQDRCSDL

Acetylcholinesterase [12] = biological target: T3, Acetylcholinesterase; assay: Inhibition of human erythrocyte AChE using acetylthiocholine as substrate by Ellman's assay
[13] = biological target: T1, Cannabinoid receptor (Mus musculus); assay: Agonist activity at cannabinoid receptor in ICR mouse vas deferens assessed as inhibition of electrically induced contractions at 10^-7 M after 10 mins in presence of CB2 antagonist AM630 relative to control; type: protein assay
[14] = biological target: T1, Cannabinoid receptor (Mus musculus); assay: Agonist activity at cannabinoid receptor in ICR mouse vas deferens assessed as inhibition of electrically induced contractions at 9 x 10^-7 M after 10 mins in presence of CB1 antagonist AM251 relative to control; type: protein assay
[15] = biological target: T1, Cannabinoid receptor (Mus musculus); assay: Agonist activity at cannabinoid receptor in ICR mouse vas deferens assessed as inhibition of electrically induced contractions at 1.82 x 10^-5 M after 10 mins in presence of CB2 antagonist AM630 relative to control; type: protein assay
[16] = biological target: T1, Cannabinoid receptor (Mus musculus); assay: Agonist activity at cannabinoid receptor in ICR mouse vas deferens assessed as inhibition of electrically induced contractions at 2.7 x 10^-6 M after 10 mins in presence of CB1 antagonist AM251 relative to control; type: protein assay
[17] = biological target: T1, Cannabinoid receptor (Mus musculus); assay: Agonist activity at cannabinoid receptor in ICR mouse vas deferens assessed as inhibition of electrically induced contractions at 8.1 x 10^-6 M after 10 mins in presence of CB1 antagonist AM251 relative to control; type: protein assay
[18] = biological target: T1, Cannabinoid receptor (Mus musculus); assay: Agonist activity at cannabinoid receptor in ICR mouse vas deferens assessed as inhibition of electrically induced contractions at 9 x 10^-7 M after 10 mins in presence of CB2 antagonist AM630 relative to control; type: protein assay
[19] = biological target: T1, Cannabinoid receptor (Mus musculus); assay: Agonist activity at cannabinoid receptor in ICR mouse vas deferens assessed as inhibition of electrically induced contractions at 3 x 10^-7 M after 10 mins in presence of CB2 antagonist AM630 relative to control; type: protein assay
[20] = biological target: T1, Cannabinoid receptor (Mus musculus); assay: Agonist activity at cannabinoid receptor in ICR mouse vas deferens assessed as inhibition of electrically induced contractions at 10^-7 M after 10 mins in presence of CB1 antagonist AM251 relative to control; type: protein assay
SH-SY5Y = assay: Toxicity in human SH-SY5Y cells at 20 uM after 24 hrs by MTT assay; type: cell-based
Homo sapiens [21] = species: Homo sapiens; assay: Antiproliferative activity against Alzheimer's patient derived lymphoblast cells at 5 uM after 72 hrs by MTT assay; type: functional
[22] = biological target: T1, Cannabinoid receptor (Mus musculus); assay: Agonist activity at cannabinoid receptor in ICR mouse vas deferens assessed as inhibition of electrically induced contractions at 2.7 x 10^-6 M after 10 mins in presence of CB2 antagonist AM630 relative to control; type: protein assay
[23] = biological target: T1, Cannabinoid receptor (Mus musculus); assay: Agonist activity at cannabinoid receptor in ICR mouse vas deferens assessed as inhibition of electrically induced contractions at 3 x 10^-7 M after 10 mins in presence of CB1 antagonist AM251 relative to control; type: protein assay
[24] = biological target: T1, Cannabinoid receptor (Mus musculus); assay: Agonist activity at cannabinoid receptor in ICR mouse vas deferens assessed as inhibition of electrically induced contractions at 8.1 x 10^-6 M after 10 mins in presence of CB2 antagonist AM630 relative to control; type: protein assay
[25] = Antiproliferative activity against normal human derived lymphoblast cells at 5 uM after 72 hrs by MTT assay
Homo sapiens [26] = species: Homo sapiens; assay: Antiproliferative activity against Alzheimer's patient derived lymphoblast cells at 5 uM in presence of CB2 antagonist AM630 after 72 hrs by MTT assay; type: functional
[27] = biological target: T1, Cannabinoid receptor (Mus musculus); assay: Agonist activity at cannabinoid receptor in ICR mouse vas deferens assessed as inhibition of electrically induced contractions at 1.82 x 10^-5 M after 10 mins in presence of CB1 antagonist AM251 relative to control; type: protein assay

| SMILES | inhibition [1] [%] | inhibition [2] [%] | inhibition [3] [%] | inhibition [4] [%] | inhibition (Cholinesterase [5]) | inhibition [6] [%] | inhibition [7] [%] | inhibition [8] [%] | Activity [9] | IC50 (Cholinesterase [10]) [µM] | inhibition (Acetylcholinesterase [11]) [%] | IC50 (Acetylcholinesterase [12]) [µM] | inhibition [13] [%] | inhibition [15] [%] | inhibition [17] [%] | Activity (Homo sapiens [21]) | inhibition [22] [%] | inhibition [24] [%] | Activity [25] | inhibition [27] [%] | also measured |
| --- | --- | --- | --- | --- | --- | --- | --- | --- | --- | --- | --- | --- | --- | --- | --- | --- | --- | --- | --- | --- | --- |
| O=C(c1ccc2ccccc2c1)n1nc(OCCN2CCCCC2)c2ccccc21 | 18.2 | -3.5 | 0.3 | -2.8 | Active | -1.2 | 4 | 50 | inactive | 4 | 43 | > 10 | – | – | – | – | – | – | – | – | – |
| O=C(c1cccc(Cl)c1F)n1nc(OCCCN2CCCCC2)c2ccccc21 | 80.5 | 18.7 | 9.6 | 24.9 | – | 13.9 | 54.7 | 34 | inactive | 0.8 | 48 | > 10 | -1.5 | 58.3 | 54.9 | Active | -2.8 | 12.9 | Non-Toxic | 76.1 | inhibition [14]: 4.3%; inhibition [16]: 12.9%; inhibition [18]: -3.8%; inhibition [19]: 1.7%; inhibition [20]: -7.1%; Activity (SH-SY5Y): Toxic; inhibition [23]: -5.3%; Activity (Homo sapiens [26]): inactive |
| O=C(c1ccc2ccccc2c1)n1nc(OCCCN2CCCCC2)c2ccccc21 | 41.9 | 0.1 | -2.1 | 1.2 | Active | -1 | 17.2 | 38 | inactive | 2.1 | 33 | > 10 | – | 49.1 | 0.7 | – | -9.7 | 20.9 | – | 49.5 | – |
| O=C(c1ccccc1OCc1ccccc1)n1nc(OCCCN2CCCCC2)c2ccccc21 | 94.7 | 6.4 | – | 31.4 | – | – | 74.4 | 38.4 | inactive | 0.0025 | 31 | > 10 | -3.1 | 77.5 | 26.4 | Active | -3 | 29.7 | Non-Toxic | 74.8 | inhibition [14]: -4.5%; inhibition [16]: -1%; inhibition [18]: -0.5%; inhibition [19]: 1.1%; inhibition [20]: -6.8%; Activity (SH-SY5Y): Toxic; inhibition [23]: -6.8%; Activity (Homo sapiens [26]): inactive |
| CCCC(C)(C)c1ccc2c(c1)OC(C)(C)[C@@H]1CC=C(C)C[C@@H]21 | – | – | – | – | – | – | – | – | – | – | – | – | – | – | – | Active | – | – | Non-Toxic | – | – |
